In brackets after ≈: the same amount, converted by molar mass. Several values for one entry are separate records, joined by “and”; a condition that tells them apart may be missing. Identical values can stand only once. Counter-ions that a name gives are not always drawn. Like-named read-outs stand apart in the source and are kept apart here.
Legend:
[1] = in vivo; conditions: Sprague Dawley, rat, in vivo, po, 50 mg/kg
Protocol: Sprague Dawley (SD) rats were supplied for habitation 10 days before the start of the experiment, weighing ˜300-350 g and kept in an air conditioned room with a constant temperature of 20° C. and a humidity of 50%. In this room there was a day-night rhythm of twelve hours. The dark phase began daily at 18 o'clock and turned over to the light phase at 6 clock. The rats were kept over the acclimatization period in standard cages of the size 3 (length: 42 cm, width 26 cm, height: 15 cm) and transferred three days before commencement of an experiment into a special experimental room, placed in the identical environmental conditions. They received a maintenance diet (maintenance diet for rats and mice; No. 1320; Altromin) and tap water ad libitum.
A catheter was implanted in the vein as well as in the arteria femoralis of rats receiving an i.v. administration. Rats receiving only oral administration of substances received a […] catheter only.
The catheterized animals were kept after surgery for a day in the experimental room and individually in their experimental cages. The application of the test compounds was carried out on the second day after the operation. On the experimental day, the rats were weighed one hour prior to the test and the arterial catheter was flushed with 300 μl of heparin solution. Subsequently, the i.v. or oral administration of the compounds was carried out.
The oral administrations were performed as a suspension or solution made with gum arabic (10% w/v) by gavage.
The oral administrations were made as suspension or solution with gum arabic (10% w/v) by gavage.
After i.v. administration, plasma samples were taken at 5, 10, 20, 45, 90, 150, 240 and 360 min, respectively after oral administration after 30, 60, 90, 120, 180, 240 and 360 min. To this, in each case 300 μl of whole blood were taken using an insulin syringe and transferred into EDTA-coated Microvettes CB 300 (Sarstedt, Nümbrecht). After each withdrawal it was rinsed with 100 μl 0.9% saline or every 60 min with heparin solution (250 IU/ml). The blood sample was shaken briefly and put until centrifugation (4° C.; 14000 U/min; 10 min) on ice. Subsequently, the samples were frozen at −80° C.
The plasma samples were processed and analyzed by HPLC. Therefor, the plasma samples were thawed at room temperature. In each case, 80 μl methanol (+0.2% TFA) were prepared and subsequently 80 μl of the plasma samples were pipetted into. The samples were shaken for 45 min to precipitate plasma proteins. The samples were frozen at −80° C., thawed and shaken for another 15 min. The samples were centrifuged for 15 min at 13.000 RPM and the supernatant was transferred into HPLC vials. In each case 50 μl were used for the determinations by LC/MS.
The animal studies were evaluated using the following LC/MS method.

[2] = target: albumin (Homo sapiens, UniProt P02768); assay type: in vitro ADME; conditions: 4% albumin solution, average of three concentrations (10, 25, 50 μM)
albumin, sequence (P02768 25-609): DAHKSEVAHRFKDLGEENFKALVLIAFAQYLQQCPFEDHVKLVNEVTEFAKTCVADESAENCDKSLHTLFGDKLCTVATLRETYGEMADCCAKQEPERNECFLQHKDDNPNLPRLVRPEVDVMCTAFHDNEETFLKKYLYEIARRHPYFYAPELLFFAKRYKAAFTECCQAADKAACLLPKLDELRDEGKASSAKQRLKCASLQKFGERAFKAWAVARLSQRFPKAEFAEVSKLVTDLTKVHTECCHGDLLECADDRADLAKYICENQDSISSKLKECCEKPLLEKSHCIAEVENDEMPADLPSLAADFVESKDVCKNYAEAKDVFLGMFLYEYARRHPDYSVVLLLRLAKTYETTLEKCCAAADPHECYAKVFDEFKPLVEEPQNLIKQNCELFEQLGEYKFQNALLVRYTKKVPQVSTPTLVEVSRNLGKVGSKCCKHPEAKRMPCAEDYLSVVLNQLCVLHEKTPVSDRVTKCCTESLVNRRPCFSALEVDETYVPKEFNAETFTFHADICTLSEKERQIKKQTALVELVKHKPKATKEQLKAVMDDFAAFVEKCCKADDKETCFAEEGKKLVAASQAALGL
Protocol: 3. Determination of Protein Binding of the Amidine Effective Form (3) as Well as of Prodrugs Thereof (2, 4) and of the Guanidine Effective Form (9) as Well as of Prodrugs Thereof (6, 10)
The plasma protein binding was carried out in three different concentrations (10, 25, and 50 μM). A 4% albumin solution was used as protein solutions. In each case, 50 μl of a 10-fold concentrated substance solution were pipetted in 450 μl of the protein solution. The incubation was carried out for 15 minutes in the shaking water bath at 37° C. Subsequently, the samples were transferred in ultra-filtration units (Vivaspin 500, 10 kDa cut-off) and centrifuged for 15 min at 10.000 rpm. The filtrate was analyzed by HPLC. In addition, a control was run for each concentration, which was not treated with protein and not centrifuged.

[3] = physchem; assay type: physicochemical; conditions: thermodynamic from solid; for solubility: read-out: maximum soluble concentration
Protocol: 2. Solubility Assays of the Compounds Tested
Determining the Solubility at Different pH Values:
Therefor, a few mg of the compounds were weighed and mixed with the volume of 50 mM KH2PO4 buffer of respective pH value for a 50 mM solution. […] Subsequently, the undissolved portion was removed by centrifugation at 10.000 rpm for 15 min, and the concentration in the supernatant was determined by HPLC.

[4] = system: influenza A virus A/Jena/5258/2009 (pandemic H1N1; oseltamivir-sensitive); assay type: cell-based
[5] = system: influenza A virus A/342/2009; experiment: microbe, parasite or virus in culture; assay type: cell-based, influenza A virus H1N1; conditions: read-out: 50% inhibitory concentration, A/342/2009
[6] = system: influenza A virus A/Jena/5258/2009; experiment: microbe, parasite or virus in culture; assay type: cell-based, influenza A virus H1N1; conditions: read-out: 50% inhibitory concentration, A/Jena/5258/2009

Row | Structure (SMILES) | Bioavailability [1] [%] | Plasma level of derivative 3 (Conc.) after oral administration of the labelled derivative ([1]; 0 min) [nM] | Plasma level of derivative 3 (Conc.) after oral administration of the labelled derivative ([1]; 30 min) [nM] | Plasma level of derivative 3 (Conc.) after oral administration of the labelled derivative ([1]; 60 min) [nM] | Plasma level of derivative 3 (Conc.) after oral administration of the labelled derivative ([1]; 90 min) [nM] | Plasma level of derivative 3 (Conc.) after oral administration of the labelled derivative ([1]; 120 min) [nM] | Plasma level of derivative 3 (Conc.) after oral administration of the labelled derivative ([1]; 180 min) [nM] | Plasma level of derivative 3 (Conc.) after oral administration of the labelled derivative ([1]; 240 min) [nM] | Plasma level of derivative 3 (Conc.) after oral administration of the labelled derivative ([1]; 360 min) [nM] | Protein binding [2] [%] | solubility at 30 min ([3]; aqueous buffer) [mM] | solubility at 30 min ([3]; pH 2, aqueous buffer) | solubility at 30 min ([3]; pH 7.4, aqueous buffer) | solubility at 30 min ([3]; pH 9, aqueous buffer) | further results
1 | CCOC(=O)C1=C[C@@H](OC(CC)CC)[C@H](NC(C)=O)[C@@H](NC(C)=N)C1 [Compound 2, (3R,4R,5S)-4-acetamido-5-(N-acetimidamido)-3-(1-ethylpropoxy)cyclohex-1-en-1-carboxylic acid ethyl ester hydrobromide] | 0.8 | 0 | 430 | 350 | 330 | 290 | 70 | 10 | 0 | 34.8 ± 8.8 | > 50 | > 17700 µg/mL and > 50000 µM | > 17700 µg/mL and > 50000 µM | > 17700 µg/mL and > 50000 µM | 
2 | CCOC(=O)C1=C[C@@H](OC(CC)CC)[C@H](NC(C)=O)[C@@H](N/C(C)=N/O)C1 [Compound 4, (3R,4R,5S)-4-acetamido-5-[N—(N′-hydroxy)acetimidamido]-3-(1-ethylpropoxy)cyclohex-1-en-1-carboxylic acid ethyl ester] |  | 0 | 6500 | 8980 | 8800 | 8100 | 6430 | 5340 | 2190 | 26.7 ± 2.5 | > 20 | > 18500 µg/mL and > 50000 µM | 8600 ± 400 µg/mL | 8600 ± 700 µg/mL | Plasma level of intermediary metabolite 11 (Conc.) after oral administration of derivative 4 ([1]; 0 min): 0 nM; Plasma level of intermediary metabolite 11 (Conc.) after oral administration of derivative 4 ([1]; 30 min): 7220 nM; Plasma level of intermediary metabolite 11 (Conc.) after oral administration of derivative 4 ([1]; 60 min): 2680 nM; Plasma level of intermediary metabolite 11 (Conc.) after oral administration of derivative 4 ([1]; 90 min): 2160 nM; Plasma level of intermediary metabolite 11 (Conc.) after oral administration of derivative 4 ([1]; 120 min): 1960 nM; Plasma level of intermediary metabolite 11 (Conc.) after oral administration of derivative 4 ([1]; 180 min): 850 nM; Plasma level of intermediary metabolite 11 (Conc.) after oral administration of derivative 4 ([1]; 240 min): 490 nM; Plasma level of intermediary metabolite 11 (Conc.) after oral administration of derivative 4 ([1]; 360 min): 130 nM; solubility ([3]; aqueous buffer, pH 7.4, 50 mM KH2PO4 buffer): 23.2 ± 1.2 mM (≈ 8570 µg/mL); solubility ([3]; aqueous buffer, pH 9.0, 50 mM KH2PO4 buffer): 23.3 ± 1.8 mM (≈ 8610 µg/mL)
3 | CCOC(=O)C1=C[C@@H](OC(CC)CC)[C@H](NC(C)=O)[C@@H](NC(N)=NO)C1 [Compound 6, (3R,4R,5S)-4-acetamido-[N—(N′ hydroxy)guanidino]-3-(1-ethylpropoxy)cyclohex-1-en-1-carboxylic acid ethyl ester] | 1.7 |  |  |  |  |  |  |  |  | 37.5 ± 10.1 | > 50 | > 18500 µg/mL and > 50000 µM | > 18500 µg/mL and > 50000 µM | > 18500 µg/mL and > 50000 µM | Plasma level of derivative 9 (Conc.) after oral administration of the labelled derivative ([1]; 0 min): 0 nM; Plasma level of intermediary metabolite 12 (Conc.) after oral administration of derivative 6 ([1]; 0 min): 0 nM; Plasma level of derivative 9 (Conc.) after oral administration of the labelled derivative ([1]; 30 min): 200 nM; Plasma level of intermediary metabolite 12 (Conc.) after oral administration of derivative 6 ([1]; 30 min): 200 nM; Plasma level of derivative 9 (Conc.) after oral administration of the labelled derivative ([1]; 60 min): 220 nM; Plasma level of intermediary metabolite 12 (Conc.) after oral administration of derivative 6 ([1]; 60 min): 160 nM; Plasma level of derivative 9 (Conc.) after oral administration of the labelled derivative ([1]; 90 min): 180 nM; Plasma level of intermediary metabolite 12 (Conc.) after oral administration of derivative 6 ([1]; 90 min): 200 nM; Plasma level of derivative 9 (Conc.) after oral administration of the labelled derivative ([1]; 120 min): 190 nM; Plasma level of intermediary metabolite 12 (Conc.) after oral administration of derivative 6 ([1]; 120 min): 190 nM; Plasma level of derivative 9 (Conc.) after oral administration of the labelled derivative ([1]; 180 min): 210 nM; Plasma level of intermediary metabolite 12 (Conc.) after oral administration of derivative 6 ([1]; 180 min): 80 nM; Plasma level of derivative 9 (Conc.) after oral administration of the labelled derivative ([1]; 240 min): 180 nM; Plasma level of intermediary metabolite 12 (Conc.) after oral administration of derivative 6 ([1]; 240 min): 10 nM; Plasma level of derivative 9 (Conc.) after oral administration of the labelled derivative ([1]; 360 min): 50 nM; Plasma level of intermediary metabolite 12 (Conc.) after oral administration of derivative 6 ([1]; 360 min): 0 nM
4 | CCOC(=O)C1=C[C@@H](OC(CC)CC)[C@H](NC(C)=O)[C@@H](NC(=N)N)C1 [Compound 10] | 1.1 |  |  |  |  |  |  |  |  | 30.1 ± 2.3 | > 50 | > 23400 µg/mL and > 50000 µM | > 23400 µg/mL and > 50000 µM | > 23400 µg/mL and > 50000 µM | 
5 | CC(=O)N[C@H]1[C@H]([C@H](O)[C@H](O)CO)OC(C(=O)O)=C[C@@H]1N=C(N)N [Zanamivir, reference compound] |  |  |  |  |  |  |  |  |  |  |  |  |  |  | 90% inhibitory concentration, A/Jena/5258/2009 [4]: 0.125 (0.219) μM; 95% inhibitory concentration (values in parentheses), A/Jena/5258/2009 [4]: 0.125 (0.219) μM; IC50 [5]: 600 nM; IC50 [6]: > 19500 nM
